# Columns and labels:
# NGF = assay: human NGF ELISA of culture supernatants of osteocyte-like cultures; format: cell-based; settings: KOA or NOF osteocyte-like cultures, PPS 1, 5 or 50 μg/mL for 72 h vs untreated
# Excerpt: In order to maximise the clinical relevance of the findings from this study, the effects of PPS were to be tested on osteocyte-like cultures derived by differentiation in vitro for a period of 28 days from cells isolated from the subchondral bone of the proximal tibia of three patients with advanced knee OA who underwent total knee arthroplasty (TKA) surgery (KOA: Group 1). As a comparator group, cells isolated from the proximal femur of three patients who underwent total hip arthroplasty (THA) for neck of femur fracture (NOF: Group 2), were similarly differentiated and tested. The gender of all donors was female, and group were age matched, with the mean age of KOA being 77.0±8.5 years and that of the NOF group being 77.7±5.5 years (p=0.91).
# (§1) Cryopreserved cells from each donor (all at passage 0 or 1) were thawed and cultured for 10d in T75 cm^2 tissue culture flasks. Once confluent, cells were removed by collagenase/dispase digestion, washed by centrifugation, counted and adjusted to 5×10^5 cells/mL. Cells were then seeded into either 12-well tissue culture trays or into 8-well chamber slides, at 1×10^5 and 2×10^4 cells/well, respectively. […]
# COX2 mRNA = assay: real-time RT-PCR for COX2 mRNA in KOA osteocyte-like cultures; format: cell-based, human
# Method: Cryopreserved cells from each donor (all at passage 0 or 1) were thawed and cultured for 10d in T75 cm^2 tissue culture flasks. Once confluent, cells were removed by collagenase/dispase digestion, washed by centrifugation, counted and adjusted to 5×10^5 cells/mL. Cells were then seeded into either 12-well tissue culture trays or into 8-well chamber slides, at 1×10^5 and 2×10^4 cells/well, respectively. After 24 h, media were replaced with osteogenic differentiation medium, consisting of αMEM, 5% v/v foetal calf serum (FCS), 1.8 mM potassium dihydrogen phosphate (KH2PO4), 100 μM Ascorbate-2-phosphate (As2P), 10 mM HEPES, 10^−8 M Dexamethasone and 0.2 mM L-Glutamine. During the differentiation process, samples were collected at days 3, 14 and 28 in Trizol reagent for total RNA preparation and gene expression analysis (see below). […]
# (§2) Following three days of pre-treatment of osteocyte-like cultures with PPS and a further 48 h treatment period, total RNA was isolated for the purposes of analysing gene expression using real-time RT-PCR. While the quality of the RNA isolated from all cultures appeared to be high, as adjudged by Nanodrop micro-spectrophotometry showing the ratio of absorbance at 260 nm/280 nm generally being between 1.9 and 2.0, there was a consistent inability to generate complementary DNA (cDNA) from any samples exposed to 5 or 50 μg/mL PPS, except in one or two samples. […]
# MMP13 mRNA = assay: real-time RT-PCR for MMP13 mRNA in KOA osteocyte-like cultures; format: cell-based, human; settings: KOA donor osteocyte-like cultures, PPS 1 μg/mL + rhTNFα 1 ng/mL (FIG. 20)
# Excerpt: FIG. 20. The effect of PPS treatment on basal and TNFα-induced MMP13 expression in human KOA osteocyte-like cultures. Real-time RT-PCR analysis of MMP13 mRNA relative to the expression of 18S rRNA. Data are means+SD of triplicate real-time RT-PCR reactions. A) KOA1-MMP13:18S mRNA expression; and B) KOA2-MMP13:185 mRNA expression.
# as §1, §2
# [1] = volunteers injected subcutaneously with PPS; cited from earlier work
substance,measurement,setting,value
Sodium Pentosan Polysulfate [PPS],secreted levels of mature NGF protein (ELISA),NGF,increased
same,"COX2 mRNA expression, PPS alone",COX2 mRNA; PPS 1 μg/mL (FIG. 18),completely inhibited
same,"COX2 mRNA expression, PPS in combination with rhTNFα",COX2 mRNA; PPS 1 μg/mL + rhTNFα 1 ng/mL (FIG. 18),completely inhibited
same,rhTNFα-induced MMP13 mRNA expression,MMP13 mRNA,strongly inhibited
same,plasma concentrations of PPS,[1],1 to 3 µg/mL

# — patent US11752169B2, “Treatment of pain with polysulfated polysaccharides” (PARADIGM BIOPHARMACEUTICALS LTD., priority 2018, dated 2023)
